{"source": "patent US20070021351A1", "about": "“Liver/plasma concentration ratio for dosing hepatitis C virus protease inhibitor” (Schering Corporation, priority 2005, published 2007)", "key": {"[1]": {"system": "HCV replicon (bicistronic subgenomic replicon, genotype 1b)", "test": "HCV replicon system, 72 hour assay in HuH-7 cells", "type": "cell-based", "from_the_text": "Changes in replicon RNA level are compared to an internal control, such as cellular glyceraldehydes-3-phosphate dehydrogenas (GAPDH) messenger RNA levels, in a single-tube multiplex reaction. […] Therefore, it is contemplated that compound of Formula Ia administration to a subject in need thereof according to the present invention results in about a 0.5- to about 4.0-log decrease in viral load RNA levels, preferably about a 1.0- to about 3.0-log decrease in viral load RNA.\nReplicon systems are well-established surrogates for viral replication as there is no HCV viral culture system. The HCV replicon is a non-infectious genotype 1b viral genome in which the sequences encoding the structural proteins at the 5′ end of the RNA have been replaced by a selectable marker, neoR.\nNS3-mediated cleavage of the HCV polyprotein releases functional viral proteins essential for viral propagation. Therefore, blockage of NS3 protease activity by compound of Formula Ia is expected to inhibit viral replication in infected host cells."}, "HCV": {"system": "HCV", "test": "Suppression of virus in serum after about two weeks of administration", "type": "in vivo", "conditions": "threshold of detectability"}, "[2]": {"test": "Example 1: Phase 1 rising-single-dose pharmacokinetic study in healthy adult subjects", "type": "in vivo, human", "conditions": "for DN AUC(I): dose-normalized (to 50 mg); for Tmax: median", "experimental": "A Phase 1, randomized, third-party-blind (within dose level), placebo-controlled, rising-single-dose study of compounds of Formulae I-XXVI was conducted in healthy adult subjects.\nNine subjects in each group received either compound of Formula Ia (n=6) or placebo (n=3). Those subjects randomized to active compound received one of the following doses of compound of Formula Ia: 50, 100, 200, 400, 600, or 800 mg.\nOn Day 1, at least 10 hours prior to compound administration, an overnight fast was maintained until 4 hours following treatment administration, after which lunch was served. During the fasting period, no food or fluid (except noncarbonated water) was permitted; furthermore, drinking water was prohibited from 2 hours predose to 2 hours postdose, with the exception of the approximately 240 mL administered with the treatments.\nBlood samples (7 mL each) for the determination of compound of Formula Ia concentrations were collected immediately prior to dosing (0 hour), and at 0.25, 0.5, 0.75, 1, 1.5, 2, 3, 4, 5, 6, 8, 10, 12, 18, 24, 36, 48, 72, and 144 hours postdose. The blood samples were collected into tubes containing EDTA. The samples were separated by centrifugation at 4° C. for 15 minutes at 1500 g to obtain the plasma, and the plasma samples frozen at −20° C. until assayed.\nPlasma concentrations of compound of Formula Ia were determined using a validated liquid chromatography tandem mass spectrometry (LC-MS/MS) method. The assay lower limit of quantitation (LLOQ) was 0.50 ng/mL, and the method was validated over the concentration range of 0.50 to 1000 ng/mL.\nThe mean and percent coefficients of variation (% CV) were calculated for the plasma concentrations of compound of Formula Ia at each time point. Concentration values less than the assay LLOQ were reported as and set to zero in the calculations and tables. The plasma concentration-time data for compound of Formula Ia were subjected to pharmacokinetic analysis by noncompartmental methods using WinNonlin software. Nominal sampling times were used for pharmacokinetic analysis.\nFor each subject, the following compound of Formula Ia pharmacokinetic parameters were determined: • Cmax Maximum observed plasma concentration • Tmax Time of maximum observed plasma concentration • tf Time of final quantifiable sample • AUC(tf) Area under the plasma concentration-time curve from time 0 to tf • AUC(I) Area under the plasma concentration-time curve from time 0 to infinity [AUC(I)=AUC(tf)+C(tf)estimated/k, where k and C(tf)estimated are terminal elimination rate constant and estimated concentration at final quantifiable sample, respectively] • t½ Terminal-phase half-life (t½=In2/k) • CL/F Apparent total body clearance (CL/F=Dose/AUC[I]) • Vd/F Apparent volume of distribution (Vd/F=CL/F*(t1/2/0.693))\nDose-adjusted (to 50 mg) Cmax, AUC(I), and AUC(tf) values were also calculated. Cmax, Tmax, and tf were the observed values. The terminal phase rate constant (k) was calculated as the negative of the slope of the log-linear terminal portion of the plasma concentration-time curve using linear regression (at least three time points). The number of points needed to determine the terminal phase rate constant was selected by WinNonlin software.\nSummary statistics, including means, standard deviations, and coefficients of variation (CV) expressed as a percent, were computed for the single-dose plasma compound of Formula Ia concentration data at each sampling time point and for the derived pharmacokinetic parameters for each dose level using a standard program based on SAS/STAT (Release 6.12; SAS Institute Inc., North Carolina).\nThe log-transformed dose-adjusted (to 50 mg) Cmax and AUC values of compound of Formula Ia were statistically analyzed using an analysis of variance (ANOVA) model. The effect due to treatment (dose) was extracted. Ninety-five percent confidence intervals (CIs) for the means at each dose level, based on the nontransformed data, were provided. […]"}, "[3]": {"conditions": "single oral 600 mg, fasted healthy adults, mean, n=6"}}}
{"smiles": "CC(C)(C)NC(=O)N[C@H](C(=O)N1C[C@H]2[C@@H]([C@H]1C(=O)NC(CC1CCC1)C(=O)C(N)=O)C2(C)C)C(C)(C)C", "note": "(mixture of isomers) [Formula Ia, (1R,5S)-N-[3-Amino-1-(Cyclobutylmethyl)-2,3-Dioxopropyl]-3-[2(S)-[[[(1,1-Dimethylethyl)Amino]Carbonyl]Amino]-3,3-Dimethyl-1-Oxobutyl]-6,6-Dimethyl-3-Azabicyclo[3.1.0]Hexan-2(S)-Carboxamide]", "values": [{"measurement": "IC50", "setting": "[1]; Hepatitis C virus, Huh-7, 72 h, read-out: IC50 for suppression of the HCV replicon", "result": "≤ 200", "unit": "nM"}, {"measurement": "IC90", "setting": "[1]; Hepatitis C virus, Huh-7, 72 h, read-out: IC90 for suppression of the HCV replicon", "result": "≤ 400", "unit": "nM"}, {"measurement": "replicon RNA decrease compared with 6×IC90", "setting": "[1]; exposure to 12×IC90 (5 μM)", "result": "comparable results"}, {"measurement": "virus level in serum", "setting": "HCV", "result": "< 100", "unit": "copies/ml"}, {"measurement": "DN AUC(I)", "setting": "[2]; single oral 50 mg, mean, n=6", "result": 181, "unit": "ng·h/mL"}, {"measurement": "DN AUC(I)", "setting": "[2]; single oral 100 mg, mean, n=6", "result": 172, "unit": "ng·h/mL"}, {"measurement": "DN AUC(I)", "setting": "[2]; single oral 200 mg, mean, n=6", "result": 212, "unit": "ng·h/mL"}, {"measurement": "DN AUC(I)", "setting": "[2]; single oral 400 mg, mean, n=6", "result": 195, "unit": "ng·h/mL"}, {"measurement": "DN AUC(I)", "setting": "[2]; single oral 600 mg, mean, n=6", "result": 180, "unit": "ng·h/mL"}, {"measurement": "DN AUC(I)", "setting": "[2]; single oral 800 mg, mean, n=6", "result": 145, "unit": "ng·h/mL"}, {"measurement": "AUC(I)", "setting": "[2]; single oral 50 mg, fasted healthy adults, mean, n=6", "result": 181, "unit": "ng·h/mL"}, {"measurement": "Tmax", "setting": "[2]; single oral 50 mg, fasted healthy adults, n=6", "result": 1.50, "unit": "h"}, {"measurement": "Cmax", "setting": "[2]; single oral 400 mg, fasted healthy adults, mean, n=6", "result": 445, "unit": "ng/mL"}, {"measurement": "Tmax", "setting": "[2]; single oral 400 mg, fasted healthy adults, n=6", "result": 1.75, "unit": "h"}, {"measurement": "AUC(I)", "setting": "[2]; [3]", "result": 2158, "unit": "ng·h/mL"}, {"measurement": "t½", "setting": "[2]; [3]", "result": 10.2, "unit": "h"}, {"measurement": "Tmax", "setting": "[2]; single oral 600 mg, fasted healthy adults, n=6", "result": 2.25, "unit": "h"}, {"measurement": "AUC(I)", "setting": "[2]; single oral 800 mg, fasted healthy adults, mean, n=6", "result": 2320, "unit": "ng·h/mL"}, {"measurement": "dose dependence of Cmax and AUC", "setting": "[2]; single oral doses 50-800 mg", "result": "increased in a dose-related manner up to the 600 mg dose"}]}
